Test results as given in the supplement of paper PMC11061612.

Columns and labels:
Etoposide = compound: COc1cc([C@@H]2c3cc4c(cc3[C@@H](O[C@@H]3O[C@@H]5CO[C@@H](C)O[C@H]5[C@H](O)[C@H]3O)[C@H]3COC(=O)[C@H]23)OCO4)cc(OC)c1O [Etoposide]; details: max 10 µM
Outline: (§1)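 Following 24 hours at 37°C and 5% CO2, cancer cell lines in 1536-well plates with 7.5 μl DMEM/F12 or RPMI and 10% FBS were dosed for 72 hours, final DMSO typically being 0.2%. CellTiter-Glo 2.0 luminescence, scaled between blank-well and DMSO-well means, gave the viability readout. Dose responses were fitted to a two-parameter logistic curve with a non-linear mixed effects model, and the single-agent IC50 was derived from this fit.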

Carboplatin = compound: C1CC(C1)(C(=O)[O-])C(=O)[O-].N.N.[Pt+2] [Carboplatin]; details: max 10 µM
Outline: as §1

AZD8186 = compound: C[C@@H](Nc1cc(F)cc(F)c1)c1cc(C(=O)N(C)C)cc2c(=O)cc(N3CCOCC3)oc12 [AZD8186]; details: max 10 µM
Outline: as §1

MK-2206 = compound: NC1(c2ccc(-c3nc4ccn5c(=O)[nH]nc5c4cc3-c3ccccc3)cc2)CCC1 [MK-2206]; details: max 10 µM
Outline: as §1

Savolitinib = compound: C[C@@H](c1ccc2nccn2c1)n1nnc2ncc(-c3cnn(C)c3)nc21 [Savolitinib]; details: max 1 µM
Outline: as §1

Prexasertib = compound: COc1cccc(OCCCN)c1-c1cc(Nc2cnc(C#N)cn2)n[nH]1 [Prexasertib]; details: max 1 µM
Outline: as §1

AZD2811 = compound: CCN(CCO)CCCOc1ccc2c(Nc3cc(CC(=O)Nc4cccc(F)c4)[nH]n3)ncnc2c1 [AZD2811]; details: max 1 µM
Outline: as §1

AZD5991 = compound: Cc1c2c(nn1C)CSCc1cc(n(C)n1)CSc1cc(c3ccccc3c1)OCCCc1c(C(=O)O)n(C)c3c-2c(Cl)ccc13 [AZD5991]; details: max 1 µM
Outline: as §1

Selumetinib = compound: Cn1cnc2c(F)c(Nc3ccc(Br)cc3Cl)c(C(=O)NOCCO)cc21 [Selumetinib]; details: max 10 µM
Outline: as §1

SG3199 = compound: CC1=CN2[C@@H](C1)C=NC3=CC(=C(C=C3C2=O)OC)OCCCCCOC4=C(C=C5C(=C4)N=C[C@@H]6CC(=CN6C5=O)C)OC [SG3199]; details: max 0.001 µM
Outline: as §1

Crizotinib = compound: C[C@@H](Oc1cc(-c2cnn(C3CCNCC3)c2)cnc1N)c1c(Cl)ccc(F)c1Cl [Crizotinib]; details: max 10 µM
Outline: as §1

AZD1390 = compound: CC(C)n1c(=O)n(C)c2cnc3cc(F)c(-c4ccc(OCCCN5CCCCC5)nc4)cc3c21 [AZD1390]; details: max 0.3 µM
Outline: as §1

Paclitaxel = compound: CC(=O)O[C@H]1C(=O)[C@@]2(C)[C@H]([C@H](OC(=O)c3ccccc3)[C@]3(O)C[C@H](OC(=O)[C@H](O)[C@@H](NC(=O)c4ccccc4)c4ccccc4)C(C)=C1C3(C)C)[C@]1(OC(C)=O)CO[C@@H]1C[C@@H]2O [Paclitaxel]; details: max 3 µM
Outline: as §1

[1] = compound: O=C(Nc1ccc2[nH]nc(-c3ccncc3)c2c1)[C@@H]1CCN(CC(=O)N2CCN(c3ccc(-c4ncccn4)cc3)CC2)C1; details: max 5 µM
Outline: as §1

Gefitinib = compound: COc1cc2ncnc(Nc3ccc(F)c(Cl)c3)c2cc1OCCCN1CCOCC1 [Gefitinib]; details: max 10 µM
Outline: as §1

SN-38 = compound: CCc1c2c(nc3ccc(O)cc13)-c1cc3c(c(=O)n1C2)COC(=O)[C@]3(O)CC [SN-38]; details: max 0.3 µM
Outline: as §1

AZD5153 = compound: COc1nnc2ccc(N3CCC(c4ccc(OCCN5CCN(C)C(=O)[C@H]5C)cc4)CC3)nn12 [AZD5153]; details: max 1 µM
Outline: as §1

Trametinib = compound: CC(=O)Nc1cccc(-n2c(=O)n(C3CC3)c(=O)c3c(Nc4ccc(I)cc4F)n(C)c(=O)c(C)c32)c1 [Trametinib]; details: max 1 µM
Outline: as §1

Dasatinib = compound: CC1=C(C(=CC=C1)Cl)NC(=O)C2=CN=C(S2)NC3=CC(=NC(=N3)C)N4CCN(CC4)CCO [Dasatinib]; details: max 2 µM
Outline: as §1

AZD1775 = compound: C=CCn1c(=O)c2cnc(Nc3ccc(N4CCN(C)CC4)cc3)nc2n1-c1cccc(C(C)(C)O)n1 [AZD1775]; details: max 3 µM
Outline: as §1

Alisertib = compound: COc1cc(Nc2ncc3c(n2)-c2ccc(Cl)cc2C(c2c(F)cccc2OC)=NC3)ccc1C(=O)O [Alisertib]; details: max 10 µM
Outline: as §1

Taselisib = compound: Cc1nc(-c2cn3c(n2)-c2ccc(-c4cnn(C(C)(C)C(N)=O)c4)cc2OCC3)n(C(C)C)n1 [Taselisib]; details: max 10 µM
Outline: as §1

Palbociclib = compound: CC(=O)c1c(C)c2cnc(Nc3ccc(N4CCNCC4)cn3)nc2n(C2CCCC2)c1=O [Palbociclib]; details: max 10 µM
Outline: as §1

5-Fluorouracil = compound: O=c1[nH]cc(F)c(=O)[nH]1 [5-Fluorouracil]; details: max 20 µM
Outline: as §1

SRA737 = compound: N#Cc1cnc(Nc2cc(NC[C@H]3CNCCO3)c(C(F)(F)F)cn2)cn1 [SRA737]; details: max 10 µM
Outline: as §1

AZD6738 = compound: C[C@@H]1COCCN1C2=NC(=NC(=C2)C3(CC3)[S@](=N)(=O)C)C4=C5C=CNC5=NC=C4 [AZD6738]; details: max 10 µM
Outline: as §1

AZD4320 = compound: CN(CC[C@H](CSC1=CC=CC=C1)NC2=C(C=C(C=C2)S(=O)(=O)NC(=O)C3=CC=C(C=C3)N4CCC(CC4)[C@H](C5=CC=CC=C5C6=CC=C(C=C6)Cl)O)S(=O)(=O)C(F)(F)F)CCO [AZD4320]; details: max 1 µM
Outline: as §1

AZD7648 = compound: Cc1cc2ncnn2cc1Nc1ncc2c(n1)n(C1CCOCC1)c(=O)n2C [AZD7648]; details: max 10 µM
Outline: as §1

AZD5363 = compound: C1CN(CCC1(C(=O)N[C@@H](CCO)C2=CC=C(C=C2)Cl)N)C3=NC=NC4=C3C=CN4 [AZD5363]; details: max 10 µM
Outline: as §1

Olaparib = compound: O=C(c1cc(Cc2n[nH]c(=O)c3ccccc23)ccc1F)N1CCN(C(=O)C2CC2)CC1 [Olaparib]; details: max 10 µM
Outline: as §1

Gemcitabine = compound: Nc1ccn([C@@H]2O[C@H](CO)[C@@H](O)C2(F)F)c(=O)n1 [Gemcitabine]; details: max 0.3 µM
Outline: as §1

Venetoclax = compound: CC1(C)CCC(CN2CCN(c3ccc(C(=O)NS(=O)(=O)c4ccc(NCC5CCOCC5)c([N+](=O)[O-])c4)c(Oc4cnc5[nH]ccc5c4)c3)CC2)=C(c2ccc(Cl)cc2)C1 [Venetoclax]; details: max 1 µM
Outline: as §1

AZD0156 = compound: CN(C)CCCOc1ccc(-c2ccc3ncc4c(c3c2)n(C2CCOCC2)c(=O)n4C)cn1 [AZD0156]; details: max 3 µM
Outline: as §1

Doxorubicin = compound: COc1cccc2c1C(=O)c1c(O)c3c(c(O)c1C2=O)C[C@@](O)(C(=O)CO)C[C@@H]3O[C@H]1C[C@H](N)[C@H](O)[C@H](C)O1 [Doxorubicin]; details: max 1 µM
Outline: as §1

Lapatinib = compound: CS(=O)(=O)CCNCc1ccc(-c2ccc3ncnc(Nc4ccc(OCc5cccc(F)c5)c(Cl)c4)c3c2)o1 [Lapatinib]; details: max 10 µM
Outline: as §1

Cell Line	IC50, cell viability 72 h (Etoposide)	IC50, cell viability 72 h (Carboplatin)	IC50, cell viability 72 h (AZD8186)	IC50, cell viability 72 h (MK-2206)	IC50, cell viability 72 h (Savolitinib)	IC50, cell viability 72 h (Prexasertib)	IC50, cell viability 72 h (AZD2811)	IC50, cell viability 72 h (AZD5991)	IC50, cell viability 72 h (Selumetinib)	IC50, cell viability 72 h (SG3199)	IC50, cell viability 72 h (Crizotinib)	IC50, cell viability 72 h (AZD1390)	IC50, cell viability 72 h (Paclitaxel)	IC50, cell viability 72 h [1]	IC50, cell viability 72 h (Gefitinib)	IC50, cell viability 72 h (SN-38)	IC50, cell viability 72 h (AZD5153)	IC50, cell viability 72 h (Trametinib)	IC50, cell viability 72 h (Dasatinib)	IC50, cell viability 72 h (AZD1775)	IC50, cell viability 72 h (Alisertib)	IC50, cell viability 72 h (Taselisib)	IC50, cell viability 72 h (Palbociclib)	IC50, cell viability 72 h (5-Fluorouracil)	IC50, cell viability 72 h (SRA737)	IC50, cell viability 72 h (AZD6738)	IC50, cell viability 72 h (AZD4320)	IC50, cell viability 72 h (AZD7648)	IC50, cell viability 72 h (AZD5363)	IC50, cell viability 72 h (Olaparib)	IC50, cell viability 72 h (Gemcitabine)	IC50, cell viability 72 h (Venetoclax)	IC50, cell viability 72 h (AZD0156)	IC50, cell viability 72 h (Doxorubicin)	IC50, cell viability 72 h (Lapatinib)
SW13 (Other Solid Carcinomas)	4.89 µM	> 10 µM	> 10 µM	> 10 µM	> 1 µM	> 1 µM	> 1 µM	0.212 µM	> 10 µM	> 0.001 µM	> 10 µM	> 0.3 µM	0.00609 µM	> 5 µM	> 10 µM	0.00519 µM	> 1 µM	0.804 µM	1.25 µM	> 3 µM	> 10 µM	> 10 µM	> 10 µM	> 20 µM	> 10 µM	> 10 µM	> 1 µM	> 10 µM	> 10 µM	> 10 µM	0.0271 µM	> 1 µM	> 3 µM	0.394 µM	4.46 µM
TGW (Neuroblastoma)	> 10 µM	> 10 µM	> 10 µM	> 10 µM	> 1 µM	0.0277 µM	> 1 µM	> 1 µM	> 10 µM	> 0.001 µM	6.84 µM	> 0.3 µM	0.108 µM	> 5 µM	> 10 µM	0.0505 µM	> 1 µM	> 1 µM	> 2 µM	0.571 µM	0.162 µM	> 10 µM	> 10 µM	> 20 µM	> 10 µM	7.37 µM	0.127 µM	> 10 µM	> 10 µM	> 10 µM	0.159 µM	> 1 µM	> 3 µM	0.521 µM	> 10 µM
TK10 (Kidney Carcinoma)	> 10 µM	> 10 µM	> 10 µM	> 10 µM	> 1 µM	0.159 µM	> 1 µM	> 1 µM	> 10 µM	> 0.001 µM	> 10 µM	> 0.3 µM	0.715 µM	> 5 µM	9.99 µM	> 0.3 µM	0.903 µM	> 1 µM	0.437 µM	2.87 µM	> 10 µM	5.34 µM	> 10 µM	> 20 µM	> 10 µM	> 10 µM	> 1 µM	> 10 µM	> 10 µM	> 10 µM	> 0.3 µM	> 1 µM	> 3 µM	> 1 µM	8.3 µM
UACC-62 (Melanoma)	> 10 µM	> 10 µM	3.99 µM	> 10 µM	> 1 µM	0.136 µM	> 1 µM	0.282 µM	0.284 µM	> 0.001 µM	> 10 µM	> 0.3 µM	0.598 µM	0.0846 µM	> 10 µM	0.0156 µM	> 1 µM	0.00406 µM	> 2 µM	> 3 µM	> 10 µM	4.61 µM	> 10 µM	> 20 µM	> 10 µM	> 10 µM	> 1 µM	> 10 µM	> 10 µM	> 10 µM	> 0.3 µM	> 1 µM	> 3 µM	0.373 µM	> 10 µM
YH-13 (Glioblastoma)	> 10 µM	> 10 µM	2.85 µM	> 10 µM	> 1 µM	0.0763 µM	> 1 µM	> 1 µM	> 10 µM	> 0.001 µM	> 10 µM	> 0.3 µM	0.00382 µM	> 5 µM	> 10 µM	0.159 µM	0.534 µM	> 1 µM	0.837 µM	> 3 µM	> 10 µM	2.99 µM	> 10 µM	> 20 µM	> 10 µM	> 10 µM	> 1 µM	> 10 µM	> 10 µM	> 10 µM	0.114 µM	> 1 µM	> 3 µM	> 1 µM	> 10 µM
